Test: Effect of buffer concentration on osmolality
Format: physicochemical
Protocol: The effect of buffer concentration on osmolality was measured for HEPES and potassium phosphate buffer systems and plotted in FIG. 8A. With HEPES, a higher buffer concentration can be achieved with a lower osmolality (slope 1.37 mOsmol/Kg per mMoles/L HEPES), as compared to phosphate buffers (slope 2.21 mOsmol/Kg per mMoles/L phosphate).

Question: Which “slope of osmolality against buffer concentration” value does the source give for `O=S(=O)(O)CCN1CCN(CCO)CC1` [HEPES, 4-(2-hydroxyethyl)-1-piperazineethanesulfonic acid] here?
Answer: 1.37 mOsmol/Kg per mMoles/L

Question: Which “slope of osmolality against buffer concentration” value does the source give for phosphate here?
Answer: 2.21 mOsmol/Kg per mMoles/L

Reference: patent US20250281512A1, “BUFFERING AGENT-CONTAINING COMPOSITIONS AND METHODS OF USING SAME” (KNOW BIO, LLC, priority 2022, published 2025)
